Test results taken from patent US8563545B2, “Compound useful for the treatment of degenerative and inflammatory diseases” (Galapagos NV, priority 2009, dated 2013).
Read-outs that look alike come from different tables or passages of the source.

Experiments:
[1] = Pharmacokinetic study in rodents; format: in vivo, rat; conditions: for F: PO 5 mg/kg vs IV 1 mg/kg; for Cmax: read-out: C0 or Cmax; for AUC: read-out: AUC (0-z); for Vd: read-out: Vss; for AUC(0-t): read-out: AUC (0-24 h)
Experimental: Sprague-Dawley rats (male, 5-6 weeks old) were obtained from Janvier (France). Rats were acclimatized for at least 7 days before treatment and were kept on a 12 hr light/dark cycle (0700-1900). Temperature was maintained at approximately 22° C., and food and water were provided ad libitum. […] After the surgery, rats were housed individually. Rats were deprived of food for at least 16 hours before oral dosing and 6 hours after. Water was provided ad libitum.
Test compounds were orally dosed as a single esophageal gavage at 5 mg/kg under a dosing volume of 5 ml/kg and intravenously dosed as a bolus via the caudal vein at 1 mg/kg under a dosing volume of 5 mL/kg. Each group consisted of 3 rats. […] For compound 11, blood samples were collected at the retro-orbital sinus with lithium heparin as anti-coagulant at the following time points 0.25, 1, 3 and 6 hrs (oral route). Whole blood samples were centrifuged at 5000 rpm for 10 min and the resulting plasma samples were stored at −20° C. pending analysis.
Plasma concentrations of each test compound were determined by an LC-MS/MS method in which the mass spectrometer was operated in positive electrospray mode.
Pharmacokinetic parameters were calculated using Winnonlin® (Pharsight®, United States).

[2] = Plasma protein binding (equilibrium dialysis), rat; format: in vitro ADME; conditions: 10 μM, 4 hrs at 37° C.
Experimental: A 10 mM stock solution of the compound in DMSO was diluted with a factor 5 in DMSO. This solution was further diluted in freshly thawed human, rat, mouse or dog plasma (BioReclamation INC) with a final concentration of 10 μM and final DMSO concentration of 0.5% (5.5 μL in 1094.5 μL plasma in a PP-Masterblock 96 well (Greiner, Cat no. 780285))
A Pierce Red Device plate with inserts (ThermoScientific, Cat no. 89809) was prepared and filled with 750 μL PBS in the buffer chamber and 500 μL of the spiked plasma in the plasma chamber. The plate was incubated for 4 hrs at 37° C. while shaking at 230 rpm. After incubation, 120 μL of both chambers was transferred to 360 μL acetonitrile in a 96-well round bottom, PP deep-well plates (Nunc, Cat no. 278743) and sealed with an aluminum foil lid. The samples were mixed and placed on ice for 30 min. This plate was then centrifuged 30 min at 1200 rcf at 4° C. and the supernatant was transferred to a 96 v-bottom PP plate (Greiner, 651201) for analysis on LCMS.
The plate is sealed with sealing mats (MA96RD-04S) of www.kinesis.co.uk and samples are measured at room temperature on LCMS (ZQ 1525 from Waters) under optimized conditions using Quanoptimize to determine the appropriate mass of the molecule.
The samples were analyzed on LCMS with a flow rate of […]. Solvent A was 15 mM ammonia and solvent B was acetonitrile. The sample was run under positive ion spray on an XBridge C18 3.5 μM (2.1×30 mm) column, from Waters. The solvent gradient has a total run time of 2 minutes and ranges from 5% B to 95% B.
Peak area from the compound in the buffer chamber and the plasma chamber are considered to be 100% compound.

[3] = Microsomal stability, rat; format: in vitro ADME; conditions: rat liver microsomes, 3 μM compound
Experimental: A 10 mM stock solution of compound in DMSO was diluted 1000 fold in a 182 mM phosphate buffer pH7.4 in a 96 deep well plate (Greiner, Cat no. 780285) and pre-incubated at 37° C. 40 μL of deionised water was added to a well of a polypropylene Matrix 2D barcode labelled storage tube (Thermo Scientific) and pre-incubated at 37° C.
A Glucose-6-phophate-dehydrogenase (G6PDH) working stock solution was prepared in 182 mM phosphate buffer pH7.4 and placed on ice before use. A co-factor containing MgCl2, glucose-6-phosphate and NADP+ was prepared in deionised water and placed on ice before use.
A final working solution containing liver microsomes (Xenotech) of a species of interest (human, mouse, rat, dog), previously described G6PDH and co-factors was prepared and this mix was incubated for no longer than 20 minutes at room temperature.
30 μL of the pre-heated compound dilution was added to 40 μL of pre-heated water in the Matrix tubes and 30 μL, of the microsomal mix was added. Final reaction concentrations were 3 μM compound, 1 mg microsomes, 0.4 U/mL GDPDH, 3.3 mM MgCl2, 3.3 mM glucose-6-phosphate and 1.3 mM NADP+.
To measure percentage remaining of compound at time zero MeOH or ACN was added (1:1) to the well before adding the microsomal mix. The plates were sealed with Matrix Sepra Seals™ (Matrix, Cat. No. 4464) and shaken for a few seconds ensure complete mixing of all components.
The samples which were not stopped are incubated at 37° C., 300 rpm and after 1 hr of incubation the reaction was stopped with MeOH or ACN (1:1).
After stopping the reaction the samples were mixed and placed on ice for 30 min to precipitate the proteins. The plates were then centrifuged 30 min at 1200 rcf at 4° C. and the supernatant was transferred to a 96 v-bottom PP plate (Greiner, 651201) for analysis on LCMS.
These plates were sealed with sealing mats (MA96RD-04S) of www.kinesis.co.uk and samples were measured at room temperature on LCMS (ZQ 1525 from Waters) under optimized conditions using Quanoptimize to determine the appropriate mass of the parent molecule.
The samples were analyzed on LCMS with a flow rate of 1 mL/min. Solvent A was 15 mM ammonia and solvent B was methanol or acetonitrile, depending on the stop solution used. The samples were run under positive ion spray on an XBridge C18 […] (2.1×30 mm) column, from Waters.
Peak area from the parent compound at time 0 was considered to be 100% remaining. The percentage remaining after 1 hr incubation was calculated from time 0 and was calculated as the percentage remaining. The solubility of the compound in the final test concentration in buffer is inspected by microscope and results are reported.
The data on microsomal stability are expressed as a percentage of the total amount of compound remaining after 60 min.

TNF release in vivo = assay: Septic shock model (LPS-induced TNF release); parameters: species or system mouse; conditions: BALB/cJ mice, 30 mg/kg, po, LPS 15 μg/kg ip
Experimental: Injection of lipopolysaccharide (LPS) induces a rapid release of soluble tumour necrosis factor (TNF-alpha) into the periphery. This model was used to analyse prospective blockers of TNF release in vivo. Six BALB/cJ female mice (20 g) per group were treated at the intended dosing once, po. Thirty minutes later, LPS (15 μg/kg; E. Coli serotype 0111:B4) was injected ip. Ninety minutes later, mice were euthanized and blood was collected. Circulating TNF alpha levels were determined using commercially available ELISA kits. Dexamethasone ([…]) was used as a reference anti-inflammatory compound. Selected compounds were tested at one or multiple doses, e.g. 3 and/or 10 and/or 30 mg/kg, po.

[4] = male, Sprague-Dawley, rat, plasma, po, 5 mg/kg
[5] = male, plasma, Sprague-Dawley rat, IV 1 mg/kg
[6] = male, plasma, Sprague-Dawley rat, IV 1 mg/kg (C0)
[7] = male, plasma, Sprague-Dawley rat, PO 5 mg/kg

F ([1]; Sprague-Dawley rat) [%] | Cmax [1, 4] [ng/mL] | clearance [1, 5] [mL/min/kg] | Cmax [1, 6] [ng/mL] | AUC [1, 5] [ng·h/mL] | Vd [1, 5] [L/kg] | Tmax [1, 7] [min] | AUC(0-t) [1, 7] [ng·h/mL] | AUC [1, 7] [ng·h/mL] | percentage bound to plasma, Rat [2] [%] | percentage of compound remaining after 60 min, Rat [3] [%] | Cl ([1]; Sprague-Dawley rat, IV 1 mg/kg) | AUC(0-t) [1, 5] [ng·h/mL] | SMILES | activity in septic shock model (circulating TNF alpha) (TNF release in vivo)
45 | 310 | 22.5 | 1410 | 722 | 1.76 | 132 | 1680 | 1430 | 65.7 | 65.6 |  |  | O=C(Nc1nc2cccc(-c3ccc(CN4CCS(=O)(=O)CC4)cc3)n2n1)C1CC1 [Compound 1, Cyclopropanecarboxylic acid {5-[4-(1,1-dioxo-1-thiomorpholin-4-ylmethyl)-phenyl]-[1,2,4]triazolo [1,5-a]pyridin-2-yl}-amide] | active
62 | 1320 |  | 863 | 470 | 1.46 | 19.8 | 1460 | 1440 | 64.5 | 38 | 2.12 | 474 | O=C(Nc1nc2cccc(-c3ccc(CN4CCOCC4)cc3)n2n1)C1CC1 [Compound 2, N-(5-(4-(morpholinomethyl)phenyl)-[1,2,4]triazolo[1,5-a]pyridin-2-yl)cyclopropanecarboxamide] | active
 |  |  |  |  |  |  |  |  | 51 | 89 |  |  | O=C(Nc1nc2cccc(-c3ccc(C(=O)N4CCS(=O)(=O)CC4)cc3)n2n1)C1CC1 [Compound 10, Cyclopropanecarboxylic acid {5-[4-(1,1-dioxo-1-thiomorpholine-4-carbonyl)-phenyl]-[1,2,4]triazolo [1,5-a]pyridin-2-yl}-amide] | active
 | 547 |  |  |  |  | 15 |  | 690 | 76.5 | 26 |  |  | O=C(Nc1nc2cccc(-c3ccc(CN4CCC(F)(F)CC4)cc3)n2n1)C1CC1 [Compound 11, Cyclopropanecarboxylic acid {5-[4-(4,4-difluoro-piperidin-1-ylmethyl)-phenyl]-[1,2,4]triazolo [1,5-a]pyridin-2-yl}-amide] | 
